This note sets out measurements from ChEMBL document CHEMBL1201862, “PubChem BioAssay data set” (2004).

Assay in all cases: NCI-60 cell line screen, 48 h
The test system of test [1] is SN12C.
The test system of test [2] is SK-MEL-5.
In test [3] the test system is KM12.
Test [4] has as its system MCF7.
For test [5], the system named is ACHN.
Test [6] deals with OVCAR-8.
In test [7] the test system is MDA-MB-435.
Test [8] has as its system SK-MEL-2.
The test system of test [9] is BT-549.
Test [10] deals with HCT-116.
In test [11] the test system is NCI-H226.
The test system of test [12] is HOP-62.
In test [13] the test system is EKVX.
In test [14] the test system is NCI-H522.
Test [15] has as its system IGROV-1.
Test [16] relates to SK-MEL-28.
The subject of test [17] is HCT-15.
Test [18] relates to SF-295.
In test [19] the test system is NCI-H460.

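Grown in 96-well plates, cells were treated for 48 hours with each compound at five concentrations. Insufficient inhibition: endpoint recorded as highest concentration tested. Abbreviation: GI50, concentration required for 50% inhibition of growth.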 Activity calls are given as the source filed them. No stated cut-off is given here; in the data, active = GI50 up to about 1.1 µM and inactive = higher.

With `Nc1c2c(nc3ccccc13)CCCc1ccccc1-2`, the GI50 in test [1] was 12.8 µM (inactive); in [2] it was 8.45 µM (inactive); in [3], 13.1 µM (inactive); in test [4], 13.1 µM (inactive); in test [5], 10.3 µM (inactive); in [6], 14.1 µM (inactive). The GI50 in test [7] was 11.3 µM (inactive); in [8], 13.4 µM (inactive); in [9] it was 28.8 µM (inactive); in test [10] it was 4.78 µM (inactive); in test [11], 15.9 µM (inactive); in [12], 12.4 µM (inactive). The GI50 is 13.2 µM (inactive) in [13]; 17.3 µM (inactive) in test [14]; 9.46 µM (inactive) in test [15]; 9.75 µM (inactive) in [16]; 13.8 µM in [17]; 7.23 µM (inactive) in test [18]. Also, the GI50 in test [19] was 2.81 µM (inactive).

With `CC(=O)Nc1cc2cc(N)ccc2oc1=O`, the GI50 in test [1], in [2], in test [3], in test [4], in [5] and in [6] was > 100 µM (inactive) in each case. In addition, the GI50 in [7], in test [8], in test [9], in [10], in test [11] and in test [12] was > 100 µM (inactive) throughout. Besides, the GI50 in test [13] is > 100 µM (inactive); in [14], > 100 µM (inactive); in [15], > 100 µM (inactive); in test [16] it was > 100 µM (inactive); in test [17] it was > 100 µM; in test [18], > 100 µM (inactive). Also, in test [19], the GI50 is > 100 µM (inactive).

Consider `CC1=C(C)C(=O)C(C2=C(C3=CC(=O)C(C)=C(C)C3=O)C(=O)c3ccccc3C2=O)=CC1=O`, for which the GI50 was 1.85 µM (inactive) in [1]; 4.53 µM (inactive) in test [2]; 3.33 µM (inactive) in test [3]; 1.71 µM (inactive) in test [4]; 2.31 µM (inactive) in test [5]; 2.38 µM (inactive) in test [6]. In addition, the GI50 in test [7] was 1.5 µM (inactive); in test [8], 2.32 µM (inactive); in test [9] it was 2.57 µM (inactive); in [10], 2.14 µM (inactive); in test [11], 6.14 µM (inactive); in test [12], 14.7 µM (inactive). Moreover, the GI50 is 2.12 µM (inactive) in test [13]; 1.88 µM (inactive) in [14]; 2.48 µM (inactive) in [15]; 2.3 µM (inactive) in test [16]; 2.12 µM in [17]; 12.1 µM (inactive) in [18]. The GI50 in test [19] is 14.2 µM (inactive).

On to `COc1cc2nc(-c3cccs3)nc(N3CCN(c4ccccc4)CC3)c2cc1OC`, for which the GI50 in test [1], in test [2], in [3], in test [4], in test [5] and in test [6] was > 100 µM (inactive) throughout. Moreover, the GI50 in [7], in test [8], in [9], in [10], in [11] and in [12] was > 100 µM (inactive) each time. Also, the GI50 in test [13] is > 100 µM (inactive); in [14], > 100 µM (inactive); in test [15] it was > 100 µM (inactive); in test [16], > 100 µM (inactive); in test [17] it was > 100 µM; in test [18] it was > 100 µM (inactive). For the same compound, the GI50 in test [19] was > 100 µM (inactive).

Turning to `C=CCNC(=S)N/N=C1\C(=O)N(CN2CCOCC2)c2ccc([N+](=O)[O-])cc21`, the GI50 was 16.4 µM (inactive) in [1]; 9.73 µM (inactive) in test [2]; 28.3 µM (inactive) in test [3]; 33.3 µM (inactive) in test [4]; 5.3 µM (inactive) in test [5]; 12.7 µM (inactive) in test [6]. Besides, the GI50 was 55.1 µM (inactive) in test [7]; > 100 µM (inactive) in test [8]; 15.1 µM (inactive) in [9]; 6.46 µM (inactive) in test [10]; > 100 µM (inactive) in test [11]; 20.6 µM (inactive) in test [12]. Also, the GI50 in test [13] was 15.4 µM (inactive); in [14], 41.4 µM (inactive); in test [15], 6.21 µM (inactive); in [16], > 100 µM (inactive); in test [17], 5.04 µM; in test [18], 7.98 µM (inactive). Moreover, the GI50 in test [19] is 4.16 µM (inactive).

With `COc1cc(/C=C2\C[C@H]3[C@@H]4CC=C5C[C@@H](O)CC[C@]5(C)[C@H]4CC[C@]3(C)C2=O)cc(OC)c1OC`, the GI50 in [1] is 26.1 µM (inactive); in test [2], 12.5 µM (inactive); in test [3] it was 27.2 µM (inactive); in test [4], 20.8 µM (inactive); in test [5] it was 30.5 µM (inactive); in [6], 34.6 µM (inactive). The GI50 in [7] was 29.8 µM (inactive); in test [8] it was 28.8 µM (inactive); in test [9], 33.4 µM (inactive); in [10] it was 20.1 µM (inactive); in test [11] it was 31.4 µM (inactive); in test [12] it was 26.4 µM (inactive). The GI50 is 33.5 µM (inactive) in [13]; 16.9 µM (inactive) in test [14]; 64.1 µM (inactive) in test [15]; 45.7 µM (inactive) in test [16]; 22.1 µM in test [17]; 19 µM (inactive) in [18]. Further, the GI50 in test [19] was 27.4 µM (inactive).

For the compound `O=C(O)c1ccccc1.[Ag]`, the GI50 in [1] is 23 µM (inactive); in test [2], 4.73 µM (inactive); in test [3], 19.5 µM (inactive); in [4] it was 13.3 µM (inactive); in test [5], 6.47 µM (inactive); in [6] it was 28.1 µM (inactive). Moreover, the GI50 was 16.8 µM (inactive) in test [7]; 14.4 µM (inactive) in test [8]; 27.2 µM (inactive) in test [9]; 6.32 µM (inactive) in test [10]; > 100 µM (inactive) in test [11]; 21.3 µM (inactive) in test [12]. Besides, the GI50 in test [13] was 26.6 µM (inactive); in [14], 1.5 µM (inactive); in test [15], 15.7 µM (inactive); in test [16], 16.9 µM (inactive); in [17] it was 21.6 µM; in test [18] it was 64 µM (inactive). In addition, the GI50 in test [19] is 11.1 µM (inactive).

For `Nc1ccn(CC(O)c2cc3ccccc3[nH]2)c(=O)n1` (centres undefined), the GI50 in test [1], in test [2], in test [3], in test [4], in [5] and in test [6] was > 100 µM (inactive) throughout. Moreover, the GI50 in test [7], in test [8], in [9], in test [10], in [11] and in test [12] was > 100 µM (inactive) throughout. Moreover, the GI50 is > 100 µM (inactive) in test [13]; > 100 µM (inactive) in test [14]; > 100 µM (inactive) in [15]; > 100 µM (inactive) in [16]; > 100 µM in [17]; > 100 µM (inactive) in test [18]. In test [19], the GI50 was > 100 µM (inactive).

In the case of `CCCC1NC(C#N)(C#N)C(CCC)NC1(C#N)C#N` (centres undefined), the GI50 in test [1] is 1.11 µM (active); in test [2], 1.44 µM (inactive); in test [3] it was 9.25 µM (inactive); in test [4], 0.0689 µM (active); in test [5] it was 0.296 µM (active); in test [6], 0.149 µM (active). Also, the GI50 in test [7] is 0.106 µM (active); in test [8] it was 52.1 µM (inactive); in [9], 1.12 µM (inactive); in test [10] it was < 0.0158 µM (active); in test [11], 22.1 µM (inactive); in [12], 35.8 µM (inactive). In addition, the GI50 in test [13] is 42.8 µM (inactive); in test [14], < 0.0105 µM (active); in [15], 1.42 µM (inactive); in test [16], 44.9 µM (inactive); in test [17], 0.105 µM; in test [18], 22.7 µM (inactive). Further, the GI50 in [19] was 14 µM (inactive).

Consider `CN1CC[N+](C)=C1c1ccccc1`, for which the GI50 in test [1], in test [2], in test [3], in test [4], in test [5] and in [6] was > 100 µM (inactive) throughout. For the same compound, the GI50 in [7], in test [8], in test [9], in test [10], in test [11] and in test [12] was > 100 µM (inactive) in each case. For the same compound, the GI50 was > 100 µM (inactive) in test [13]; > 100 µM (inactive) in test [14]; > 100 µM (inactive) in test [15]; > 100 µM (inactive) in test [16]; > 100 µM in [17]; > 100 µM (inactive) in test [18]. In test [19], the GI50 was > 100 µM (inactive).

In the case of `N=C1OC(c2c[nH]c3ccc(OCc4ccccc4)cc23)C(O)=C1O` (centres undefined), the GI50 in [1], in test [2], in [3], in test [4], in test [5] and in [6] was > 100 µM (inactive) in each case. Further, the GI50 in test [7], in test [8], in [9], in test [10], in test [11] and in test [12] was > 100 µM (inactive) each time. Besides, the GI50 in test [13] was > 100 µM (inactive); in [14] it was > 100 µM (inactive); in [15], > 100 µM (inactive); in test [16], > 100 µM (inactive); in test [17], > 100 µM; in [18], > 100 µM (inactive). Also, the GI50 in test [19] was > 100 µM (inactive).
